Experimental data from patent US11192863B2, “Antiviral compounds and methods” (Biotron Limited, priority 2003, dated 2021).
Where a name gives a salt, the structure may show the parent alone. Read-outs that look alike come from different tables or passages of the source.

Experiments:
[1] = test system: MHV (strain MHV-A59); conditions: L929 cells
[2] = target: Vpu protein (Human immunodeficiency virus type 1 group M subtype B, UniProt P05919); conditions: halo of growth score between zero and six; XL1-blue E. coli with pPL-Vpu, no adenine, 37° C.
[3] = test system: human coronavirus OC43; experiment: microbe, parasite or virus in culture; type: cell-based; conditions: Betacoronavirus 1, OC43, MRC5, 120 h, MRC-5 cells, 5 days post infection
[4] = target: SARS-CoV E protein (Severe acute respiratory syndrome coronavirus, UniProt P59637); type: cell-based
[5] = target: 229E-CoV E-protein (Human coronavirus 229E, UniProt P19741); experiment: Bacterial bio-assay for 229E-CoV E-protein; conditions: halo of growth score; E. coli expressing E protein at 37° C.

SMILES | Percent reduction in Plaque number/# experiments ([1]; 1 uM) | Percent reduction in Plaque number/# experiments ([1]; 10 uM) | Percent reduction in Plaque number/# experiments ([1]; 20 uM) | Vpu Inhibition (score/# of times tested) [2] | inhibition at 2.5 µM [3] [%] | SARS E protein Inhibition (score/# of times tested) [4] | 229E E protein Inhibition (score) [5] [score]
N=C(N)NC(=O)/C=C/c1ccc(Cl)cc1Cl [2,4-dichlorocinnamolyguanidine] | 43/1% | 73/1% | 76/1% | 0.63/2 score | 36 | 0.63/2 score | –
N=C(N)NC(=O)/C=C/c1c(Cl)cccc1Cl [2,6-dichlorocinnamoylguanidine] | 40/1% | 70/1% | 91/1% | 2.88/2 score | 27 | 2.25/1 score | 1.0
N=C(N)NC(=O)/C=C/c1ccc(Cl)c(Cl)c1 [3,4-dichlorocinnamoylguanidine] | 50/2% | 96/1% | 91/2% | 2.9/3 score | 90 | 4.15/2 score | 4.4
N=C(N)NC(=O)/C=C/c1cccc(OC(F)(F)F)c1 [3-(trifluoromethoxy)cinnamoylguanidine] | 41/2% | 90/3% | 100/1% | 2.44/2 score | 4 | 2.71/1 score | 4.1
CCOc1ccc(/C=C/C(=O)NC(=N)N)cc1 [4-ethoxycinnamoylguanidine] | 40/1% | 92/1% | 96/1% | 0.69/2 score | – | 2.48/2 score | 0.1
N=C(N)NC(=O)/C=C/c1ccc(F)cc1 [4-fluorocinnamoylguanidine] | 20/1% | 83/1% | 86/1% | 1.1/2 score | – | 1.25/1 score | 0.4
CC(C)c1ccc(/C=C/C(=O)NC(=N)N)cc1 [4-isopropylcinnamoylguanidine] | 41/3% | 93/3% | 95/3% | 1.4/2 score | 68 | 3.16/2 score | 4.9
Cc1ccc(/C=C/C(=O)NC(=N)N)cc1 [4-methylcinnamoylguanidine] | 20/1% | 89/1% | 93/1% | 2.1/2 score | – | 1.25/1 score | 0.3
N=C(N)NC(=O)/C=C/c1ccc(-c2ccccc2)cc1 [4-phenylcinnamoylguanidine] | 21/3% | 36/1% | 53/1% | 1.1/2 score | – | 2.75/2 score | 1.0
N=C(N)NC(=O)/C=C/C=C/c1cccc(Br)c1 [5-(3′-bromophenyl)penta-2,4-dienoylguanidine] | 66/1% | 99/2% | – | 2.5/2 score | – | 0.5/1 score | 0.3
NC(N)=NC(=O)c1nc(Cl)c(Nc2ccc(F)cc2)nc1N [5-(4-fluorophenyl)amiloride] | 16/1% | 25/1% | 4/1% | 0.4/6 score | – | 1.38/1 score | 1.8
CN(C)c1nc(N)c(C(=O)N=C(N)N)nc1Cl [5-(N,N-Dimethyl)amiloride hydrochloride] | 17/4% | 7/4% | 42/4% | 0.1/2 score | – | 1.38/2 score | 1.3
